Experimental data as given in publication PMC6355875 (Scientific Reports, 2019).

How the values were obtained:
Format in all cases: cell-based
[1] = target: T1, hPPAR-α (Homo sapiens, UniProt Q07869); assay: GAL4-DBD hPPARα/LBD luciferase reporter assay in HEK293T cells; conditions: activation, overnight
T1 construct: expressed in transfected cells; host or cells: HEK293T
T1 sequence (Q07869 175-468): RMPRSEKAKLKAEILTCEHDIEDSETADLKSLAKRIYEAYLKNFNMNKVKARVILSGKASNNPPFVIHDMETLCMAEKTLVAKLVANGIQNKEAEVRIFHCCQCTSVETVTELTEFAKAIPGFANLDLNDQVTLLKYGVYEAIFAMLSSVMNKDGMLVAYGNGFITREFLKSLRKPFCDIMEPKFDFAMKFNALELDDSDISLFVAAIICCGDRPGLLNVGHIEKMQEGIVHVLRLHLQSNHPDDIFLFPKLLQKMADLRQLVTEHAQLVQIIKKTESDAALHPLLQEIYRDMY
Method: (§1) A GAL4-DNA Binding Domain (GAL4-DBD) fusion protein was constructed for each PPAR family member. To assess compound activity, each construct was co-transfected into HEK293T cells (American Type Culture Collection; Manassass, VA) along with the reporter construct, pGL5 (Promega) using Fugene 6 (Promega) as a transfection reagent and the manufacturer’s protocol. An eleven point dilution series of each compound was added to the cells and incubated overnight. Luciferase levels were then determined following the addition of Bright-Glo (Promega) using the manufacturer’s recommendations.

[2] = target: T2, hPPAR-γ (Homo sapiens, UniProt P37231); assay: GAL4-DBD hPPARγ/LBD luciferase reporter assay in HEK293T cells; conditions: activation, overnight
T2 construct: expressed in transfected cells; host or cells: HEK293T
T2 sequence (P37231 184-477 isoform P37231-2): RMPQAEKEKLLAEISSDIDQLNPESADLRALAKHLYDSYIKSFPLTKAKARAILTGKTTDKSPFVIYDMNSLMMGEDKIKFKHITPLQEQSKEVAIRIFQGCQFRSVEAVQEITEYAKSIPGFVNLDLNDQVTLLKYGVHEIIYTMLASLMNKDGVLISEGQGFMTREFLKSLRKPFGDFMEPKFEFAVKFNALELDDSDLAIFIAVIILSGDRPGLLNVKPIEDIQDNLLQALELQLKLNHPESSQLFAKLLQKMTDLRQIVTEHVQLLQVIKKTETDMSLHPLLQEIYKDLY
Method: as §1

[3] = target: T3, hPPAR-δ (Homo sapiens, UniProt Q03181); assay: GAL4-DBD hPPARδ/LBD luciferase reporter assay in HEK293T cells; conditions: for EC50: activation, HEK293T reporter, overnight; for hPPAR subtype profile: from EC50 on hPPAR-δ, -α, -γ
T3 construct: expressed in transfected cells; host or cells: HEK293T
T3 sequence (Q03181 147-441): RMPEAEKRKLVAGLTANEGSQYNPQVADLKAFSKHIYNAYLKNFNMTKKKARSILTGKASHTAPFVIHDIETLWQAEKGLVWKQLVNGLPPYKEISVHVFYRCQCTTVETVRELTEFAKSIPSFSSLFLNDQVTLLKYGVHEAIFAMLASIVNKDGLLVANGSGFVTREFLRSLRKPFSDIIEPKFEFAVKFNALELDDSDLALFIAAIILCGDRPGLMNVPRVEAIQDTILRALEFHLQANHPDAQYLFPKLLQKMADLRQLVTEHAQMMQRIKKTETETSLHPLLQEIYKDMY
Method: as §1

EC50 [3] [µM]	hPPAR subtype profile [3]	Structure (SMILES)	EC50 [1] [µM]	EC50 [2] [µM]
		Cc1cccc(OCCNC(=O)COc2ccc(CC(=O)O)cc2)c1 [GNF-0242, CC1=CC=CC(OCCNC(=O)COC2=CC=C(CC(O)=O)C=C2)=C1]	> 10	> 10
7.55		O=C(COc1ccc(C(=O)O)cc1)NC(c1ccccc1)c1ccc(Cl)cc1 (centres unmarked) [GNF-0248, OC(=O)C1=CC=C(OCC(=O)NC(C2=CC=CC=C2)C2=CC=C(Cl)C=C2)C=C1]	7.04	> 10
8.39		CCCOc1c(/C=C/C(=O)c2ccc(SCC(=O)O)c(OC)c2)cccc1OCC [GNF-1676, CCCOC1=C(OCC)C=CC=C1C=CC(=O)C1=CC=C(SCC(O)=O)C(OC)=C1]	6.19	1.29
0.007	agonists of hPPAR-δ and hPPAR-α only	O=C(NCc1ccc(COCC(F)(F)F)cc1)c1cc(-c2ccccc2)[nH]n1 [GNF-3632, FC(F)(F)COCC1=CC=C(CNC(=O)C2=NNC(=C2)C2=CC=CC=C2)C=C1]	5.48	> 10
6.82		CCOc1cc(/C=C/C(=O)O)ccc1OCc1ccc(C(C)(C)C)cc1 [GNF-4516, CCOC1=CC(C=CC(O)=O)=CC=C1OCC1=CC=C(C=C1)C(C)(C)C]	2.33	> 10
7.04		COCCCn1c(SCc2cccc(C(=O)O)c2)nc2sc3c(c2c1=O)CCCS3 [GNF-5154, COCCCN1C(=O)C2=C(SC3=C2CCCS3)N=C1SCC1=CC=CC(=C1)C(O)=O]		
4.33		COc1cc(/C=C2/S/C(=N/c3ccccc3)NC2=O)ccc1OCc1cccc(C(=O)O)c1 [GNF-5758, COC1=CC(C=C2SC(NC2=O)=NC2=CC=CC=C2)=CC=C1OCC1=CC=CC(=C1)C(O)=O]	6.93	9.73
0.012		O=C(Nc1cccc(CNCC(c2cccs2)N2CCOCC2)c1)c1ccc(Cl)cc1 (centres unmarked) [GNF-6029, ClC1=CC=C(C=C1)C(=O)NC1=CC=CC(CNCC(N2CCOCC2)C2=CC=CS2)=C1]	> 10	> 10
0.008		CCOc1cccc(/C=N/c2cccc(-c3csc(/N=C/c4cccc(OCC)c4O)n3)c2)c1O [GNF-6878, CCOC1=CC=CC(C=NC2=NC(=CS2)C2=CC=CC(=C2)N=CC2=CC=CC(OCC)=C2O)=C1O]	> 10	> 10
3.7		O=C(OCC(=O)c1ccc(O)cc1O)c1ccc(COc2ccc3ccccc3c2)o1 [GNF-6928, OC1=CC=C(C(=O)COC(=O)C2=CC=C(COC3=CC=C4C=CC=CC4=C3)O2)C(O)=C1]	6.9	3.78
0.019	agonists of hPPAR-δ and hPPAR-α only	COc1cc(CNCc2cc(C)on2)ccc1OCC(=O)Nc1ccc(Br)cc1 [GNF-6952, COC1=CC(CNCC2=NOC(C)=C2)=CC=C1OCC(=O)NC1=CC=C(Br)C=C1]	7.56	> 10
7.24		O=C(NCCCCOc1ccc(F)cc1)c1ccc([N+](=O)[O-])c(O)c1 [GNF-7176, OC1=CC(=CC=C1[N+]([O-])=O)C(=O)NCCCCOC1=CC=C(F)C=C1]	> 10	> 10
		COc1ccc(CNCc2ccc(Oc3cccnc3)c(F)c2)cc1O [GNF-8065, COC1=CC=C(CNCC2=CC=C(OC3=CC=CN=C3)C(F)=C2)C=C1O]	> 10	> 10
4.6		O=[N+]([O-])c1cc(S(=O)(=O)N2CCCC2)ccc1OCC(O)CNCc1ccc(F)cc1 (centres unmarked) [GNF-9594, OC(CNCC1=CC=C(F)C=C1)COC1=CC=C(C=C1[N+]([O-])=O)S(=O)(=O)N1CCCC1]	> 10	> 10

Structure (SMILES)	EC50 [3] [µM]	hPPAR subtype profile [3]	EC50 [1] [µM]	EC50 [2] [µM]
Cc1ccc(C(=O)Nc2cccc(CNCc3ccc(OC(F)(F)F)cc3)c2)cc1 [GNF-0341, CC1=CC=C(C=C1)C(=O)NC1=CC=CC(CNCC2=CC=C(OC(F)(F)F)C=C2)=C1]	0.011	agonists of hPPAR-δ and hPPAR-γ only	> 10	1.26
O=C(O)Cc1csc(SCc2cc(F)cc3c2OC(c2ccccc2)OC3)n1 (centres unmarked) [GNF-1051, OC(=O)CC1=CSC(SCC2=CC(F)=CC3=C2OC(OC3)C2=CC=CC=C2)=N1]	7.76		7.33	> 10
COc1ccc(C(=O)/C=C/c2c(C)nn(-c3ccccc3)c2Cl)cc1CSCC(=O)O [GNF-4909, COC1=CC=C(C=C1CSCC(O)=O)C(=O)C=CC1=C(Cl)N(N=C1C)C1=CC=CC=C1]	8.24		0.825	1.83
O=C(Nc1ccccc1O)C1CCN(C(=O)COc2ccc(F)cc2)CC1 [GNF-5891, OC1=CC=CC=C1NC(=O)C1CCN(CC1)C(=O)COC1=CC=C(F)C=C1]	0.013		> 10	7.28
COc1ccc(N2CCN(C(=O)CSc3nnc(COc4ccc(Cl)cc4C)[nH]3)CC2)cc1 [GNF-7486, COC1=CC=C(C=C1)N1CCN(CC1)C(=O)CSC1=NN=C(COC2=CC=C(Cl)C=C2C)N1]	0.018		> 10	> 10
CC(C(=O)Nc1ccc(SC(F)F)cc1)N1CC=C(c2ccc(O)cc2)CC1 (centres unmarked) [GNF-8208, CC(N1CCC(=CC1)C1=CC=C(O)C=C1)C(=O)NC1=CC=C(SC(F)F)C=C1]	7.86		> 10	> 10
O=C(CN1CCN(c2ccc(O)cc2)CC1)NCC1(N2CCOCC2)CCCCC1 [GNF-8501, OC1=CC=C(C=C1)N1CCN(CC(=O)NCC2(CCCCC2)N2CCOCC2)CC1]	0.006		> 10	> 10
Cc1cc(C(=O)COc2ccc(C(=O)O)cc2)c(C)n1CCC1=CCCCC1 [GNF-9057, CC1=CC(C(=O)COC2=CC=C(C=C2)C(O)=O)=C(C)N1CCC1=CCCCC1]	7.49		4.63	8.59
O=C(Nc1ccccc1O)C1CCN(C(=O)c2ccc(OCC3CCCO3)cc2)CC1 (centres unmarked) [GNF-9448, OC1=CC=CC=C1NC(=O)C1CCN(CC1)C(=O)C1=CC=C(OCC2CCCO2)C=C1]	0.883		7.06	0.937
Cc1ccc(-c2nc(SCCCC(=O)N3CCOCC3)[nH]c2-c2ccc(C)cc2)cc1 [GNF-9820, CC1=CC=C(C=C1)C1=C(N=C(N1)SCCCC(=O)N1CCOCC1)C1=CC=C(C)C=C1]	0.012		> 10	> 10
Cc1cc(C(=O)COC(=O)c2ccc(O)cc2O)c(C)n1Cc1ccc(F)cc1 [GNF-9969, CC1=CC(C(=O)COC(=O)C2=CC=C(O)C=C2O)=C(C)N1CC1=CC=C(F)C=C1]	9.48		6.94	1.01
